assay: Human HepG2 cell viability assay in 384 well format; assay type: toxicity, cell-based; set-up: dose 125 nL, time 70.5 hour; cytotoxicity at 70.5 h: concentration not given beside the values; details: HepG2 cells, read-out: Inhibition

Structure (SMILES)	cytotoxicity at 70.5 h [%]
CN1CCCC1CCn1ccnc1-c1ccc2ccccc2n1 (stereo unspecified)	1.35
CN(C)C(=O)c1nc(-c2ccc(S(C)(=O)=O)cc2)c2ccccn12	-12.8
NC(=O)C1(c2cnccn2)CCCN1Cc1cccc(Cl)c1 (stereo unspecified)	-2.75
Cc1nc(Nc2ncccn2)cc(C2CCCN2C2CCOCC2)n1 (stereo unspecified)	1.98
CSc1ccc(CNC2(c3ccc(F)cc3)CCOCC2)cc1	-3.89
CCCc1nc(C)c(CNc2nc(C)nc3onc(C)c23)s1	2.81
O=C(NCCNc1ncccn1)N1CCCC1c1ccc(F)cc1 (stereo unspecified)	-9.37
COCCN1CCC(CNC(=O)C2(C#N)CCCCC2)CC1	-8.47
CNC(=O)c1ccc(CN(C(=O)c2scnc2C)C2CC2)cc1	29.9
CC(c1nnc(-c2ccccc2)o1)N1CCc2cncnc2C1 (stereo unspecified)	-4.24
CC1Cn2c(nc3c2c(=O)[nH]c(=O)n3C)O1 (stereo unspecified)	-12.3
Cc1noc(C)c1CSC1CCCN(c2cnn(C)c2)C1=O (stereo unspecified)	5.52
CC(C)(C)C(O)CN1CCN(CC(=O)NCC(F)(F)F)CC1 (stereo unspecified)	13.1
CN1CCC(N2CCC[C@H]2c2nc(-c3cncnc3N)no2)CC1	-0.402
CCCC(=O)N(C)C(c1cccc(F)c1)c1ccccn1 (stereo unspecified)	-3.08
Cc1nn(C2CCS(=O)(=O)C2)c(C)c1CC(=O)NCc1ccccc1Cl (stereo unspecified)	-4.52
O=C(C1CCCO1)N1CCCn2c(nnc2Cn2cccn2)C1 (stereo unspecified)	-10.9
COC(C)C(=O)N(CC(N)=O)Cc1cccc(Oc2ccccc2)c1 (stereo unspecified)	-2.39
CC(C)c1nc(C2CCCN2CC(=O)N2CCc3ccccc32)no1 (stereo unspecified)	-3.85
COc1cccc(Cn2ncc(N(C)CCc3ccccc3)cc2=O)c1	-6.35
Cc1nc(-c2ccccc2F)sc1C(=O)N1CCN(C)CC1	-10.6
Cn1cc(-c2nnn3c2COC(CNCc2cccnc2)C3)cn1 (stereo unspecified)	18.5
c1ccc(OCCN2CCCC(c3noc(C4CC4)n3)C2)cc1 (stereo unspecified)	-0.448
CC(C)CCNC(=O)c1csc(NC2CC2)n1	-9.92

Structure (SMILES)	cytotoxicity at 70.5 h [%]
O=S(=O)(NC1CCN(CC(F)(F)F)C1)c1cc(F)cc(F)c1 (stereo unspecified)	12.7
CCc1ccc(C(C)NCc2nccn2Cc2ccccc2)o1 (stereo unspecified)	-9.96
CN(C)S(=O)(=O)NCC1(c2ccccc2Br)CC1	13.4
O=C(c1cccnc1)N1CCc2[nH]nc(Nc3ccccc3)c2C1	-6.1
O=C(N1CCCC1)C12CC(CN1Cc1nccs1)C2	-9.99
Cc1cc(NC(=O)CN2CCn3c(nnc3C(C)C)C2)n(C)n1	34.7
COc1ccc(NC(=O)CSc2nc(C)cc(C)n2)cn1	-8.52
CCN(CC)C(=O)c1c(Cl)cnn1CC	-0.536
COc1ccc2c(c1)C(=O)N(C)C1(CCN(C(=O)OC(C)(C)C)CC1)N2	1.71
CCc1nc2ccccc2c(=O)n1CC1(O)CCN(CC(=O)OC)CC1	-10.9
COCCN(CCC#N)S(=O)(=O)c1cc(F)ccc1F	-2.55
O=C(O)[C@]12CCCN(Cc3ccoc3)C[C@H]1CN(c1ncccn1)C2	-6.33
O=C(N1CC(c2cccnc2)C1)C1(c2ccc(F)cc2)CCOCC1	3.01
O=C(NCc1cncc2c1CCN(Cc1cccc(F)c1)C2)C1CC1	-1.35
CCc1noc(C(C)N2CCC(N3CCCCC3)CC2)n1 (stereo unspecified)	-6.88
COCc1nccc(C2CCCN(Cc3ccc(C#N)cc3)C2)n1 (stereo unspecified)	-5.34
Cc1cc(O)nc(C2CN(CCC(F)(F)F)CCO2)n1 (stereo unspecified)	-7.38
Cn1cc(C2(C)CN(Cc3ccc(N4CCCC4)nc3)CCO2)cn1 (stereo unspecified)	-10.5
CCOC(=O)CC1CCCCN1C(=O)c1cnc(C)cn1 (stereo unspecified)	-4.78
O=C(NCCNS(=O)(=O)c1cccc(Cl)c1)C1CCCO1 (stereo unspecified)	6.97
CCc1ccccc1CNC(=O)CCc1cnn(C)c1	-8.72
CC(C)(C)CC(=O)N1CC[C@@H](CC(=O)O)[C@@H](CCN2CCCCC2)C1	8.46
CN1C(=O)c2ccc(C(=O)N(Cc3cnn(C)c3)C3CC3)cc2C1=O	-16.5
CS(=O)(=O)c1nnc(NC(=O)CCc2cc(F)ccc2F)[nH]1	-14.9

Structure (SMILES)	cytotoxicity at 70.5 h [%]
Cn1cccc1C(O)CNC(=O)c1ccc2nsnc2c1 (stereo unspecified)	-14.5
O=C(c1cccnc1N1CCCCC1)N1CCCC(n2cccn2)C1 (stereo unspecified)	15.6
COc1cccc2cc(CNC(=O)N3CCC(N4CCCC4)C3)oc12 (stereo unspecified)	-4.76
Cc1cc(C)n(C2CN(CC(=O)N3CCOCC3)C2)n1	4.72
COc1cc2nc(NCCNS(C)(=O)=O)cc(C)c2cc1OC	-0.473
CC(O)CN1CCN(C(=O)c2ccc(CN(C)C)cc2)CC1 (stereo unspecified)	-0.592
NC(=O)c1c(-c2ccc(Cl)cc2)csc1NC(=O)CCC(=O)O	-4.48
Cc1noc(C)c1C(=O)N1Cc2ncn(C)c2C(COCC(C)C)C1 (stereo unspecified)	-7
CNC(=O)c1cccc(CC2COCCN(Cc3ccc(C)o3)C2)n1 (stereo unspecified)	-2.79
Cc1nccn1CC1CCCN1CCCc1nc(-c2cccs2)no1 (stereo unspecified)	9.19
c1cncc(-c2ccnn2CN2CCC3(CC2)OCCO3)c1	-5.34
N#Cc1cn(C2CC2)c(=O)n(CC(O)c2ccc(F)cc2)c1=O (stereo unspecified)	-16.6
Cc1c(-c2cccs2)nn2c(O)c3c(nc12)CN(C(=O)C1CC1)C3	-4.82
CN(C)C(=O)CN1CCC2(CC1)CC(=O)c1c(ccc3ccccc13)O2	-1.64
FC(F)c1nnc2ccc(N3CCC4(CCCCC4)C3)nn12	-3.87
CCOC(=O)C1CC2(CCCCC2)N2CCC(=O)N12 (stereo unspecified)	-4.11
CCN1CCC(NC(=O)c2ccc(F)cc2I)CC1	-7.1
Cc1cccc(CN2CCOCC2c2[nH]ncc2C)n1 (stereo unspecified)	-2.39
CC(C(=O)NC(C)(C)C)N1CCC(C(=O)Nc2cnccn2)CC1 (stereo unspecified)	-8.75
O=C(C1CCC1)N1CCC2(CCCN2CC2CC2)CC1	-0.744
Cc1nc(CCCNC(=O)Nc2cc(F)cc(F)c2)n[nH]1	-11.9
CCCSCC(=O)N1C[C@@H](NC(C)=O)[C@H](c2ccc(OC)cc2)C1	-19.4
O=C(c1ccc[nH]1)N1Cc2nccn2CC(COc2cccnc2)C1 (stereo unspecified)	18.1
CC(NC(=O)Cn1ccc2sccc2c1=O)c1ccccc1 (stereo unspecified)	-10.1

Structure (SMILES)	cytotoxicity at 70.5 h [%]
CC(=O)NCC(=O)N(CCN1CCOCC1)Cc1ccco1	3.23
Cc1cc(NC(=O)CN2CCCCC2Cn2nc(C)nc2C)on1 (stereo unspecified)	-8.71
CN(Cc1ccccc1)C(=O)CSc1ccc2c(c1)OCCO2	2.14
Cc1ccc(C(=O)Nc2ccc(OC3CCN(C)CC3)cc2)c(C)c1	-5.87
O=C(CCCc1nnc(-c2ccccc2)o1)N1CCC1	-14.2
Cc1nc(N(C)CCCc2nccn2C)c2nc(C)oc2n1	-11.8
Cc1cc(C)nc(NC2CC(=O)N(C(C)(C)C)C2)n1 (stereo unspecified)	7.77
Cc1n[nH]c(C2CN(C(=O)COCC(F)(F)F)CCO2)n1 (stereo unspecified)	-5.9
c1ncn(CC2CCCN(CC3CCCCC3)C2)n1 (stereo unspecified)	-7.32
O=C(c1c[nH]cn1)N1CCC(F)(F)C2(CCN(c3ccccn3)C2)C1 (stereo unspecified)	-4.42
CC(=O)N1CCN(C(=O)NCCc2ccc(Cl)s2)CC1	-4.33
CC(NC(=O)NCCCn1cncn1)c1ccc(C#N)cc1 (stereo unspecified)	1.25
Cc1ncc(CN2CCOC(c3ccc(-c4cc[nH]n4)cn3)C2)s1 (stereo unspecified)	-2.9
CNC(=O)[C@@H]1C[C@H](N)CN1Cc1cc2cc(C)cc(C)c2[nH]c1=O	-13.7
CCn1ccc2ccc(CN3CCCC3c3nc(C(C)C)no3)cc21 (stereo unspecified)	-10.7
O=C(c1ccsc1)N1CCOC2(CCN(Cc3cccnc3)CC2)C1	-1.16
CCn1cnnc1C1CCN(C(=O)c2cc(OC)ccc2OC)CC1	1
c1ccc(CN2CC[C@@H]3O[C@H](COCc4ccncc4)CC[C@@H]32)nc1	-13
Clc1cccnc1N1CCC(C2CCN(Cc3cccnc3)CC2)C1 (stereo unspecified)	25.7
Cc1cc(C)n(CCC2CC(=O)Nc3cc(O)c(C)cc32)n1 (stereo unspecified)	-5.9
CCCn1nc2c(cc1=O)CN(Cc1nc(C)c(C)o1)CC2	-9.42
COC(=O)CN(Cc1ccccc1C)C(=O)CCCNC(=O)C1CC1	10.1
CN1CCC2(CC1)C(=O)N(c1cccnc1)c1ccc(F)cc12	-0.57
COCCN(CC(F)F)c1cc(COC)nc2ncnn12	-9.69

Structure (SMILES)	cytotoxicity at 70.5 h [%]
CN(C)C(=O)C1(c2cnccn2)CCCN1C(=O)Cc1ccsc1 (stereo unspecified)	-5.5
CCOc1ccc(C(=O)Nc2ccn(CC)n2)cc1	-1.03
N#CCCN(CC1CCCO1)C(=O)c1ccsc1 (stereo unspecified)	-4.29
COCC1N(C(=O)Nc2ccccc2)[C@H]2CC[C@]1(O)CC2 (stereo partly specified)	-7.67
CC(C)(CNCc1ccc(OCc2cscn2)cc1)C(N)=O	2.2
OC1CCCN(Cc2cn(CC3CCN(C4CCSCC4)CC3)nn2)C1 (stereo unspecified)	-2.84
COC(=O)c1ccc(NC(=O)CCNCc2ccco2)cc1	-7.22
Cc1ccc(C)c(OCCNC(=O)[C@@H]2CCCCN2)c1	-5.85
Cc1ccc(CN(C)Cc2nc3c(cnn3C)c(=O)[nH]2)c(C)c1	7.52
CCSc1ccc(NC(=O)NC(C)c2c(C)noc2C)cn1 (stereo unspecified)	-6.61
CCN1CC(C(=O)NCCn2cccc2)CCC1=O (stereo unspecified)	-7.13
CCCn1cc(NC(=O)Nc2ccc(F)c(C(=O)NC)c2)cn1	-4.76
CN1CCN([C@@H]2CCN(C3CCOCC3)[C@H]2Cc2cnn(C)c2)CC1	-6.56
CCc1nccn1CCC(=O)N1CC[C@H](CO)[C@H](O)C1	-10.2
Cc1cc(C(=O)O)c2c(Br)cccc2n1	-13.5
O=C(NC[C@H]1OC[C@@H](NC2CCCCC2)[C@@H]1O)Nc1ccccc1	15.8
Cc1cnc(CCN(C)C(=O)c2ccc(O)nc2C)s1	-2.62
CC(C)(C)C(O)CN1CCN(Cc2cccc(C#N)c2)CC1 (stereo unspecified)	14.7
CN(Cc1ccncc1)C1COC2(CCN(Cc3cccs3)CC2)C1 (stereo unspecified)	-12.7
Cn1ncc2c1C(COCC1CC1)CN(c1ncc(F)cn1)C2 (stereo unspecified)	-4.28

Source: ChEMBL document CHEMBL3507680, “University of Dundee, Gates Library screen for HepG2 cell viability”
